In data set [1] the test system is TAMH hepatocyte cell line. As to the kind of experiment: O2 consumption with a Clark electrode. In kind it is cell-based, murine. The procedure: Respiratory rates of both cell lines were maintained through repeated additions of 10 μM 2-OMeA, to a final concentration of 90 μM. […] Real-time glucose consumption and lactate production by TAMH cells grown on microcarrier beads was monitored using a novel microsequential injection-lab on valve (μSI-LOV) system (Schulz et al., Analyst 127:1293-1298, 2002). […] Since 2-OMeA has no effect on cellular respiration at these concentrations, 2-OMeA induced aerobic glycolysis in TAMH cells. The glycolytic response to 2-OMeA was proportional to cellular BCl-xL protein expression.

The next data set deals with cytochrome bc1 (Bos taurus, UniProt P00157). The note with it: cited from earlier work.
The test system of the next data set is NOD/SCID mice. As to the kind of experiment: In vivo toxicity, intravenous dosing.
A further data set has as its system RPMI-8226. As to the kind of experiment: Propidium iodide exclusion / flow cytometry cytotoxicity. In kind it is cell-based, human. The settings on record: for mode of induced cell death: annexin V, sub-G1 DNA content, mitochondrial membrane potential. The procedure:
Cell survival was assayed by exclusion of propidium iodide (PI; 10 μg/ml) by unfixed cells. Annexin V-FITC (Pharmingen) or 3, 3′-dihexyloxacarbocyanine iodide (DiOC6(3); Molecular Probes) staining was analyzed together with PI to discriminate early apoptotic cells. Apoptotic cells were also measured as sub-G1 events among ethanol-fixed cells stained with 10 μg/ml PI. All cell samples were analyzed using a benchtop FACSCalibur™ (Becton Dickinson, San Jose, Calif.). Flow data were analyzed using MultiCycle AV software (Phoenix Flow Systems). For intracellular pH measurements, cell pellets were washed once and resuspended in 2 ml of HEPES-buffered medium (no phenol red and no serum). Carboxy-SNARF-1-AM (Molecular Probes, 1 mM stock in DMSO, stored at −20° C.) was added to a final concentration of 10 μM, and the cells were incubated for 30 min at 37° C. Following incubation with SNARF, cells were sedimented and the pellets were held on ice. Immediately before analysis, pellets were resuspended in […] (HBSS; experimental buffer) or high-[K+] buffer containing nigericin (calibration samples).
In general terms: A flow cytometer gives signals particle by particle.

The subject of data set [2] is plasma proteins. As to the kind of experiment: Binding to plasma proteins (ultrafiltration). In kind it is in vitro ADME, dog. The settings on record: presence of NaF+EDTA, 1000 ng/ml. The procedure: (§1) Solutions of 2-OMe antimycin A3 were diluted with plasma (dog or human) containing NaF+EDTA to final concentrations of 1.0 or 0.2 μg/ml. Controls were diluted with water to the same final concentrations. These preparations were incubated at 37° C. for 20 min, at which time portions were taken and placed in the sample reservoirs of Amicon Centrifree® ultrafiltration systems (Millipore Co., Bedford, Mass.). At 37° C., the filter systems were centrifuged until the reservoirs were dry. From each filtrate, portions were taken for analysis by HPLC. The amounts present were designated as “free drug” (F). The concentrations of the unfiltered solutions were also determined by triplicate analyses. This amount represented the “total drug” concentration (T). The percentage of 2-OMe antimycin A3 bound to plasma proteins was calculated by the following formula: % bound=((T−F)/T)×100
Similar experiments were performed for 2-OMe antimycin A3 in dog or rat plasma in the absence of NaF/EDTA.

Data set [3] can be described thus: Pharmacokinetic evaluation in Fischer 344 rats. In kind it is in vivo, rat. The note with it: intravenous 0.25 mg/kg; for amount detectable in plasma: 2 hr after dosing; for amounts in the urine, livers, or kidneys: 24 hr after dosing. The method, then:
Male Fischer 344 rats (five/group) were dosed via a lateral tail vein with either 2-OMe-A1 or 2-OMe-A3 (0.25 mg/kg) administered as a 1-min intravenous push. The dosing vehicle was the same as that used for mice. The dosing volume was 1.3 ml/kg. Blood samples were collected and analyzed. Further, samples of plasma, urine, livers, and kidneys were collected from rats kept in metabolism cages for 24 hr. To retard the breakdown of the test compounds, NaF+EDTA was present in the tubes used for collecting blood and urine and was added to tissue homogenates.
Pharmacokinetic values were derived with WinNonlin® software (Mountain View, Calif.).

Data set [4] in a line: Stability in plasma. The note with it: for stability: 37° C., 60 min. In kind it is in vitro ADME, mouse. The method, then: (§2) For analysis of samples, two volumes of cold methanol-acetonitrile (50:50, v/v) were added to portions of plasma, culture medium, or cell extract. The preparations were mixed and then centrifuged to obtain clear supernatants, which were dried at room temperature by compressed air. The residues were dissolved in the mobile phase, and a portion was injected onto the HPLC column.
(§3) The HPLC equipment consisted of a Hewlett Packard 1050 ChemStation with a fluorescence detector (Agilent 100 series). […] The mobile phase was methanol:ammonium acetate buffer (87:13 v/v; 0.2 M; pH 5.8, adjusted with HCl). The flow rate was 1 ml/min. The column elute was monitored fluorometrically at an excitation wavelength of 232 nm and an emission wavelength of 418 nm. The amounts of test compounds present in samples were determined from the peak areas.
(§4) Samples of mouse, rat, dog, and human plasma were incubated at 37° C. with and without addition of NaF (2.5 mg/ml) and EDTA (1 mg/ml). To these preparations, 2-OMe antimycin A1, 2-OMe antimcyin A2, 2-OMe antimycin A3, or 2-OMe antimycin A5, dissolved in methanol, was added to final concentrations of 500 ng/ml. Portions of plasma, taken at selected times after addition of the 2-OMe antimycin analog, were extracted and analyzed.
(§5) Similarly, the stability of 2-OMe antimycin A1, 2-OMe antimycin A2, […] in the plasma from mice and humans was evaluated at −80° C. From these preparations, portions were analyzed immediately; other portions were stored at -80° C. and analyzed after 1, 2, and 4 weeks.

Data set [5] deals with plasma proteins. The experiment in a line: Binding to plasma proteins (ultrafiltration). The class given is in vitro ADME, rat. The settings on record: presence of NaF+EDTA, 1000 ng/ml.
Data set [6] is described as follows: Stability in plasma. In kind it is in vitro ADME, rat. The note with it: 37° C., 60 min, presence of NaF/EDTA. The procedure: as §2, §3, §4
Data set [7] relates to plasma proteins. As to the kind of experiment: Binding to plasma proteins (ultrafiltration). The note with it: presence of NaF+EDTA, 1000 ng/ml. The class given is in vitro ADME, human. The method, then: as §1
A short description of data set [8]: Stability in plasma. The class given is in vitro ADME, dog. The note with it: 37° C., 60 min; for stability: presence of NaF/EDTA. The procedure:
as §2, §3, §4

Data set [9] is described as follows: Stability in plasma. In kind it is in vitro ADME, human. The settings on record: for stability: 37° C., 60 min. The procedure:
as §2, §3, §4, §5

The target of the next data set is Bcl-xLΔC20 (Homo sapiens, UniProt Q07817). The experiment in a line: Calcein leakage from large unilamellar vesicles (pore formation). The class given is biochemical.
Chain of Bcl-xLΔC20 (Q07817 1-213 limits assumed, stated change not applied): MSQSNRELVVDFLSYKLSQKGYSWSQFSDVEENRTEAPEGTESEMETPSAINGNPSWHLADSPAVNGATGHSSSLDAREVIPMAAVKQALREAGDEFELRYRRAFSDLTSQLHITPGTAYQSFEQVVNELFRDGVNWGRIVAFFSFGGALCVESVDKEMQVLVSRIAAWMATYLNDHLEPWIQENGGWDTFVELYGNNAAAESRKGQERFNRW

Results on four molecules are retold here after US20050239873A1 (priority 1999, published 2005).

Like-named read-outs stand apart in the source and are kept apart here. A value given as a limit tells only on which side of the number the result lay.

Procedure for Bcl-xLΔC20: In this example the ability of antimycin A to prevent pore formation by BCl-xL was tested. […] Recombinant human BCl-xL lacking the C-terminal 20-residue membrane anchor sequence, Bcl-xLΔC20, forms pores in large unilamellar vesicles. A reporter, calcein, can leak out of the vesicles through these pores.
Briefly, a dry film of lipid was resuspended in an aqueous solution containing 40 mM calcein (Molecular Probes, Eugene, Oreg.), 25 mM KCl and 10 mM HEPES (pH 7.0). After 5 freeze-thaw cycles, the lipidic solution was extruded through 2 Nucleopore filters, 0.1 μm pore diameter. […] The size of the vesicle suspension was measured by a Coulter N4 Plus-Sizer to confirm that the mean diameter of the vesicle sample was close to the expected size (100 nm). The osmolalities of all solutions were measured in a cryoscopic osmometer (Wescor Inc., Logan, Utah) and adjusted to 0.21 Osmol/kg by the addition of sodium chloride, as necessary.
Calcein leakage was determined by adding 2-4 μg of purified Bcl-xLΔC20 (5 μg/ml, 161 nM) to a solution of 100 mM NaCl, 10 mM HEPES (pH 5.0) containing the large unilamellar vesicles (50 μM final lipid concentration) described above. Changes in the fluorescence intensity were measured in an Aminco-SLM spectrofluorimeter. […] The 100% fluorescence level for leakage was obtained by detergent lysis (0.1% Triton X-100) of the vesicles containing entrapped calcein.

Regarding 2-methoxy antimycin A [2-OMeA], the respiratory rate entry in [1] (repeated additions of 10 μM to a final concentration of 90 μM) is recorded as “maintained”. Further, the “reduction of oxidative phosphorylation inhibitory activity at complex III” value on cytochrome bc1 (relative to antimycin A) is reported as 1000 fold. The mice died entry in the data set on NOD/SCID mice (intravenous 20 mg/kg) was “Three of six”. Also, in the data set with RPMI-8226 (5 and 20 μg/ml, three cell lines), the “cell killing measured as PI uptake, compared with antimycin A” value is recorded as “similar”. Besides, the “mode of induced cell death” value with RPMI-8226 was “apoptosis”.

In general, AUC refers to the area under the concentration-time curve, a measure of exposure. By Cmax is commonly meant the highest concentration seen after dosing. A word on the MRT: it is a mean duration of stay, worked out from the concentration-time curve. As to `CCCCCC[C@H]1C(=O)O[C@H](C)[C@H](NC(=O)c2cccc(NC=O)c2OC)C(=O)O[C@@H](C)[C@@H]1OC(=O)CC(C)C` [2-OMeA1, 2-methoxy antimycin A1], in the data set with plasma proteins [2], the “Protein binding, Dog” value is 99.8%. Also, in [3], the “amount detectable in plasma” value is “little or no”; the “amounts in the urine, livers, or kidneys” value is recorded as “little or no detectable amounts”; the AUC amounted to 47 ng·h/mL; the Cmax amounted to 970 ng/mL. In data set [3], this molecule gave an MRT of 3.3 min, a T1/2 of 2.3 min and a Vss of 0.29 mL/g. Moreover, the stability result in the data set “Stability in plasma [4]” (presence of NaF/EDTA) was “substantially stable”. Moreover, the “amounts remaining after 4 weeks” value in “Stability in plasma [4]” (-80° C., presence of NaF/EDTA) came to 96%. The “amounts remaining after 4 weeks” value in “Stability in plasma [4]” (−80° C., absence of NaF/EDTA) is listed as 78%. The “Protein binding, Rat” value with plasma proteins [5] is greater than 99.9%. Further, in the data set with NOD/SCID mice (10 mg/kg), the “histologic examinations of normal tissues” value was “No cellular injury or inflammation”. Besides, the “reformation of antimycin A1 in plasma” value in the data set on NOD/SCID mice (preliminary LC/MS analyses of plasma after administration) was “have not demonstrated reformation”. Also, the “mice survived without apparent toxicity” value in the data set with NOD/SCID mice (three intravenous doses of 10 mg/kg on alternate days) was 6 of 6. In the data set with NOD/SCID mice (treated tumor-bearing mice, 10 mg/kg), the adverse effects result is listed as “No adverse effects”. Further, the stability result in the data set “Stability in plasma [6]” was “substantially stable”. Moreover, in the data set on plasma proteins [7], the “Protein binding, Human” value is recorded as 99.5%. Moreover, the added amount remaining in “Stability in plasma [8]” (absence of NaF/EDTA, 500 ng/ml) is 61%. In the data set “Stability in plasma [8]”, the stability result was “unstable”. In addition, the stability result in “Stability in plasma [9]” (presence of NaF/EDTA) was “moderately stable”. Besides, the “amounts remaining after 4 weeks” value in “Stability in plasma [9]” (-80° C., presence of NaF/EDTA) came to 93%. Further, in “Stability in plasma [9]” (−80° C., absence of NaF/EDTA), the “amounts remaining after 4 weeks” value is reported as 86%.

One may read the half-life as the time needed for the level to fall by half in the phase considered. `CCCC[C@H]1C(=O)OC(C)[C@H](NC(=O)c2cccc(NC=O)c2OC)C(=O)O[C@@H](C)C1OC(=O)CC(C)C` (some centres unmarked) [2-OMeA3, Antimycin A3 methyl ether]: at Bcl-xLΔC20, the “inhibition of Bcl-xL pore formation, liposome permeability assay” value was “almost as well as antimycin A3”. Further, in the data set with plasma proteins [2], the “Protein binding, Dog” value was 99.3%. For the same molecule, the “amount detectable in plasma” value in [3] was “little or no”. In addition, the “amounts in the urine, livers, or kidneys” value in data set [3] is “little or no detectable amounts”. This molecule came in with a half-life in [3] (male, Fischer 344, rat, plasma) of 1 min. For the same molecule, the AUC in data set [3] (male, Fischer 344, rat, plasma, read-out: AUC) was found to be 18 ng·h/mL. Further, the Cmax in data set [3] (male, Fischer 344, rat, plasma, read-out: Cmax) was found to be 920 ng/mL. In addition, in [3] (male, Fischer 344, rat, plasma, read-out: MRT (converted)), the MRT was 1.4 min. For the same molecule, the Vd in data set [3] (male, Fischer 344, rat, plasma, read-out: Vss) was found to be 0.37 L/kg. The stability entry was “notable decreases in concentration” in the data set “Stability in plasma [4]” (presence of NaF/EDTA), “largely stable” in the data set “Stability in plasma [6]”, “largely stable” in “Stability in plasma [8]” and “notable decreases in concentration” in the data set “Stability in plasma [9]” (presence of NaF/EDTA). The “amounts remaining after 4 weeks” value in “Stability in plasma [4]” (-80° C., presence of NaF/EDTA) is 90%; in the data set “Stability in plasma [4]” (−80° C., absence of NaF/EDTA), 45%; in the data set “Stability in plasma [9]” (-80° C., presence of NaF/EDTA), 95%; in the data set “Stability in plasma [9]” (−80° C., absence of NaF/EDTA) it was 73%. Further, the “activity as an inhibitor of cytochrome bc1” value at cytochrome bc1 was “inactive”. Also, in the data set on plasma proteins [5], the “Protein binding, Rat” value is given as 99.8%. Also, the “Protein binding, Human” value in the data set with plasma proteins [7] stood at 99.9%.

For the molecule antimycin A, the dampening of respiration in data set [1] (10 μM) is greater than 90%. Also, the “Bcl-xL pore-forming activity (calcein leakage)” value at Bcl-xLΔC20 (12 μM) was “completely blocked”. Besides, in the data set on RPMI-8226, the “time of treatment at which cell death was demonstrated” value was no more than 8 h and the “mode of induced cell death” value was “apoptosis”. Moreover, in the data set on RPMI-8226 (5 to about 20 μg/ml), the “sensitivity (PI exclusion)” value is on record as “sensitive”.
